Results on eleven molecules are retold here after PubChem BioAssay (NCI).

Values joined by “and” are separate entries in the source; they are usually repeats but may differ in a detail not shown here. Equal entries are not always repeated.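 Dose response: 5 concentrations. Exposure: 48 h. Format: 96-well plates. Endpoint: linear interpolation; highest concentration if not reached. Abbreviation: GI50, concentration required for 50% inhibition of growth. Definition used: TGI = concentration required for complete inhibition of growth.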

What all share (assay): NCI-60 cell line screen, 48 h
The subject of assay [1] is A498 renal.
Assay [2] has as its system CCRF-CEM leukemia.
The subject of assay [3] is HCC-2998 colon.
Assay [4] deals with MDA-MB-231 breast.
Assay [5] concerns NCI-H226 lung.
In assay [6] the test system is NCI/ADR-RES ovarian.
The subject of assay [7] is PC-3 prostate.
Assay [8] concerns RXF 393 renal.
Assay [9] relates to SF-295 CNS.
For assay [10], the system named is SK-MEL-28 melanoma.
The test system of assay [11] is SW-620 colon.
The subject of assay [12] is UACC-257 melanoma.

Turning to `CCNc1nnc(-c2ccccc2Nc2ccccc2-c2nnc(NCC)s2)s1`, the TGI in assay [1] was 91 µM; in assay [2] it was 31.4 µM; in [3] it was 27.8 µM; in [4], 25.7 µM; in assay [5], 77.2 µM; in [6] it was more than 100 µM. In addition, the TGI in assay [7] is more than 69.4 µM; in assay [8] it was 85.8 µM; in assay [9], 40.5 µM; in assay [10], 55.2 µM; in assay [11], more than 100 µM; in [12], 90.3 µM.
Consider `C=C1c2nc3ccccc3n2C=C(c2ccc(Cl)cc2)N1c1ccc(OCCN2CCCCC2)cc1`, for which the GI50 in assay [1] is more than 100 µM; in assay [2], 0.226 µM; in assay [4], more than 100 µM; in [6], 2.14 µM; in assay [7], more than 100 µM; in assay [8], more than 100 µM. Besides, the figures for the GI50 in assay [10] and in assay [12] were 32.8 µM and more than 100 µM, respectively. For the same molecule, the TGI in assay [1], in assay [3], in assay [4], in [5], in [6] and in [7] was more than 100 µM in each case. The TGI is more than 100 µM in assay [8]; more than 45 µM in assay [9]; more than 100 µM in assay [10]; more than 45 µM in assay [11]; 37.4 µM and > 100 µM in assay [12].
On to `O=C(CN=C(CN(c1ccccc1)c1ccccc1)Oc1ccc(Cl)cc1Cl)n1ccnc1`, for which the TGI in [1], in assay [2], in [4], in assay [5], in [6] and in assay [7] was more than 100 µM in each case. Also, the TGI in assay [8], in [9], in assay [10], in [11] and in assay [12] was more than 100 µM in each case.
For `C(#CC1(Nc2ccccc2)CCN(Cc2ccccc2)CC1)C1(Nc2ccccc2)CCN(Cc2ccccc2)CC1`, the TGI in assay [1] was more than 46.4 µM; in assay [2] it was 37.3 µM; in assay [3], more than 100 µM; in [4] it was 42.8 µM; in [5] it was more than 56.2 µM; in [6] it was more than 100 µM. The TGI is 36.5 µM in [7]; 25.7 µM in assay [8]; more than 56.2 µM in assay [9]; 26.7 µM in assay [10]; more than 56.2 µM in [11].
Turning to `NC(=O)Cn1c(=O)oc2cc(C(=O)CN3CCOCC3)ccc21`, the TGI in assay [1], in [2], in [4], in assay [5], in assay [6] and in assay [7] was more than 100 µM in each case. The TGI in assay [8], in assay [9], in [10] and in [11] was more than 100 µM each time.
As to `COC(=O)Cn1c(=O)oc2nc(-c3ccccc3)cc(C(F)(F)F)c21`, the TGI in assay [1], in assay [3], in assay [4], in assay [5], in assay [6] and in assay [7] was more than 100 µM each time. Also, the TGI in assay [8], in assay [9], in assay [10], in [11] and in assay [12] was more than 100 µM in each case.
Turning to `NC(=O)CCC(NC(=O)c1c2ccccc2nc2ccccc12)C(=O)O` (configuration not stated), the TGI in [1], in assay [2], in assay [3], in assay [4], in assay [5] and in assay [6] was more than 100 µM throughout. Moreover, the TGI in assay [7], in [9], in [10], in assay [11] and in assay [12] was more than 100 µM throughout.
Consider `O=C(NCCCN(CCCCN(CCCNC(=O)c1cc(S(=O)(=O)O)cc(O)c1O)C(=O)c1cc(S(=O)(=O)O)cc(O)c1O)C(=O)c1cc(S(=O)(=O)O)cc(O)c1O)c1cc(S(=O)(=O)O)cc(O)c1O`, for which the TGI in assay [1], in [2], in assay [3], in [4], in assay [5] and in assay [6] was more than 100 µM in each case. Besides, the TGI in assay [7], in assay [10], in [11] and in assay [12] was more than 100 µM each time.
Regarding `C#CCOCn1cc(C)c(=O)[nH]c1=O`, the TGI in [1], in assay [2], in assay [3], in [4], in [5] and in assay [6] was more than 100 µM each time. Further, the TGI in assay [7], in assay [9], in assay [10], in assay [11] and in assay [12] was more than 100 µM throughout.
For the molecule `COc1ccc(-c2nc3c(C(=O)NCCN(C)C)cccc3c3ccccc23)cc1`, the TGI turned out to be 8.96 µM in [1]; 10.3 µM in [2]; 3.85 µM in assay [3]; 12.2 µM in assay [4]; 17.1 µM in [5]; 45.4 µM in assay [6]. The TGI in assay [7] came to 13.7 µM; in assay [9], 4.83 µM; in assay [10], 3.71 µM; in [11] it was 14.5 µM; in [12], 3.56 µM.
As to `CC(C)(C)[Si](C)(C)OCC1OC(n2ccc(=O)[nH]c2=O)C(O[Si](C)(C)C(C)(C)C)[C@]12O[C@@H]2CO` (some centres not stated), the TGI amounted to 38.7 µM in [1]; 81.7 µM in [3]; 39.6 µM in [4]; 30.7 µM in [5]; 44 µM in [6]; 16.8 µM in [7]. In addition, the TGI worked out at 23.7 µM in assay [9], 34.6 µM in [10], 58.7 µM in [11] and 39.7 µM in [12].
